Measured values published in patent publication US20250144067A1, “PERSONALIZED STARVATION THERAPY FOR CANCER” (Faeth Therapeutics, Inc., priority 2021, published 2025).
Counter-ions that a name gives are not always drawn. Like-named read-outs stand apart in the source and are kept apart here.

Experiments:
[1] = tested on: NCI-H292 lung cancer cells; assay: FDA drug screening, complete media vs cholesterol-free media with simvastatin (TABLE 2); assay type: cell-based, human
[2] = tested on: NCI-H292 lung cancer cells; assay: FDA drug screening, complete media vs cholesterol-free media without statin (TABLE 1); assay type: cell-based, human
[3] = NCI-H292 cells, FDA library drug in cholesterol-free media with simvastatin 0.04 μM
[4] = NCI-H292 cells, FDA library drug in complete media
[5] = complete media vs cholesterol-free media + simvastatin (0.04 μM), […]
[6] = Complete minus Cholesterol-free, […]
[7] = NCI-H292 cells, cholesterol-free media without statin, FDA drug library screen
[8] = NCI-H292 cells, complete media, FDA drug library screen
[9] = NCI-H292 cells, cholesterol-free media with simvastatin 0.04 μM, FDA drug library screen (TABLE 2)
[10] = NCI-H292 cells, complete media, FDA drug library screen (TABLE 2)
[11] = complete media minus cholesterol-free media + simvastatin (0.04 μM), >0 enhanced anti-cancer activity, about 0 neutral, <0 antagonist
[12] = Complete minus Cholesterol-free, >0 enhanced anti-cancer activity, about 0 neutral, <0 antagonist
[13] = complete vs cholesterol-free media, >0 enhanced anti-cancer activity, about 0 neutral, <0 antagonist
[14] = NCI-H292 cells, FDA drug library screen, cholesterol-free media with simvastatin 0.04 μM
[15] = NCI-H292 cells, FDA drug library screen, complete media
[16] = complete media vs cholesterol-free media + simvastatin (0.04 μM), >0 enhanced anti-cancer activity, about 0 neutral, <0 antagonist
[17] = NCI-H292 cells in cholesterol-free media without statin
[18] = NCI-H292 cells in complete media
[19] = NCI-H292 cells, cholesterol-free media without statin
[20] = NCI-H292 cells, cholesterol-free media with simvastatin 0.04 μM, cell growth value in FDA drug screen
[21] = NCI-H292 cells, complete media, cell growth value in FDA drug screen
[22] = complete media minus cholesterol-free media + simvastatin, >0 enhanced anti-cancer activity, about 0 neutral, <0 antagonist

## C=CC[N+]1([C@H]2C[C@H]3[C@@H]4CC[C@H]5C[C@H](OC(C)=O)[C@@H](N6CCCCC6)C[C@]5(C)[C@H]4CC[C@]3(C)[C@H]2OC(=O)CC)CCCCC1 [Rapacuronium bromide]
[1]; [3]
  Cholesterol-free media + simvastatin (0.04 μM): 1.051
[1]; [4]
  Complete Media: 0.7626
[1]; [5]
  Difference: −0.29
[2]; [6]
  Difference: 0.04
[2]; [7]
  Cholesterol-free: 0.8802
[2]; [8]
  Complete: 0.9158

## CCC(=O)c1c(O)cc(O)cc1O [Flopropione]
[1]; [9]
  Cholesterol-free media + simvastatin (0.04 μM): 1.103
[1]; [10]
  Complete Media: 1.044
[1]; [11]
  Difference: −0.06
[2]; [12]
  Difference: −0.07
[2]; [7]
  Cholesterol-free: 1.019
[2]; [8]
  Complete: 0.9515

## Cc1nnc(C(=O)NC(C)(C)c2nc(C(=O)NCc3ccc(F)cc3)c(O)c(=O)n2C)o1 [Raltegravir (potassium salt)]
[1]
  Cholesterol-free media + simvastatin (0.04 μM): 0.8687
  Complete Media: 0.9051
  Difference: 0.04
[2]
  Cholesterol-free: 1.332
  Complete: 0.9188
  Difference: −0.41

## C[C@@H](O)[C@H]1C(=O)N2C(C(=O)O)=C(S[C@@H]3CN[C@H](C(=O)N(C)C)C3)[C@H](C)[C@H]12 [Meropenem (trihydrate)]
[1]; [9]
  Cholesterol-free media + simvastatin (0.04 μM): 1.099
[1]; [10]
  Complete Media: 1.05
[1]; [11]
  Difference: −0.05
[2]; [7]
  Cholesterol-free: 1.169
[2]; [8]
  Complete: 1.522
[2]; [13]
  Difference: 0.35

## Oc1ccc(C=Cc2cc(O)cc(O)c2)cc1 [Resveratrol]
[1]; [14]
  Cholesterol-free media + simvastatin (0.04 μM): 0.7896
[1]; [15]
  Complete Media: 0.6933
[1]; [16]
  Difference: −0.10
[2]; [7]
  Cholesterol-free: 1.037
[2]; [13]
  Difference: 0.13

## Cc1ccc2c(Cl)cc(Cl)c(O)c2n1 [Chlorquinaldol]
[1]; [9]
  Cholesterol-free media + simvastatin (0.04 μM): 0.0008861
[1]; [10]
  Complete Media: 0.007501
[1]; [11]
  Difference: 0.01
[2]; [12]
  Difference: 0.01
[2]; [7]
  Cholesterol-free: 0.003949
[2]; [8]
  Complete: 0.01849

## O=C1O[C@H]([C@@H](O)CO)C(O)=C1O [L-Ascorbic acid (sodium salt)]
[1]; [9]
  Cholesterol-free media + simvastatin (0.04 μM): 0.9802
[1]; [10]
  Complete Media: 0.9199
[1]; [11]
  Difference: −0.06
[2]; Complete minus Cholesterol-free, greater than 0 enhanced anti-cancer activity, about 0 neutral, below 0 antagonist
  Difference: −0.14
[2]; NCI-H292 cells, FDA drug library screen, cholesterol-free media without statin
  Cholesterol-free: 0.9664
[2]; [15]
  Complete: 0.8232

## CCN(CC)CCOC(=O)C(O)(c1ccccc1)c1ccccc1 [Benactyzine hydrochloride]
[1]; NCI-H292 cells, drug in cholesterol-free media with simvastatin 0.04 μM
  Cholesterol-free media + simvastatin (0.04 μM): 1.159
[1]; NCI-H292 cells, drug in complete media
  Complete Media: 0.961
[1]; [5]
  Difference: −0.20
[2]; [6]
  Difference: −0.51
[2]; [17]
  Cholesterol-free: 1.39
[2]; [18]
  Complete: 0.878

## Terbutaline (sulfate)
[1]; [14]
  Cholesterol-free media + simvastatin (0.04 μM): 1.189
[1]; [16]
  Difference: −0.15
[2]; [12]
  Difference: −0.29
[2]; [19]
  Cholesterol-free: 1.263
[2]; NCI-H292 cells, complete media
  Complete: 0.9738

## CCc1ccc(CCOc2ccc(CC3SC(=O)NC3=O)cc2)nc1 (stereo not drawn) [Pioglitazone]
[1]; [3]
  Cholesterol-free media + simvastatin (0.04 μM): 2.095
[1]; [4]
  Complete Media: 1.521
[1]; [16]
  Difference: −0.57
[2]; [7]
  Cholesterol-free: 0.8939
[2]; [13]
  Difference: 0.27

## CNC(=O)c1cc(Oc2ccc(NC(=O)Nc3ccc(Cl)c(C(F)(F)F)c3)c(F)c2)ccn1 [Regorafenib (Hydrochloride)]
[1]; [9]
  Cholesterol-free media + simvastatin (0.04 μM): 0.9433
[1]; [10]
  Complete Media: 0.9026
[1]; [11]
  Difference: −0.04
[2]; [12]
  Difference: 0.04
[2]; [7]
  Cholesterol-free: 0.8297
[2]; [8]
  Complete: 0.8736

## CC(C)OC(=O)CCC/C=C\C[C@@H]1[C@@H](CC[C@@H](O)CCc2ccccc2)[C@H](O)C[C@@H]1O [Latanoprost]
[1]; [9]
  Cholesterol-free media + simvastatin (0.04 μM): 1.031
[1]; [10]
  Complete Media: 0.9769
[1]; [11]
  Difference: −0.05
[2]; Complete minus Cholesterol-free, greater than 0 enhanced anti-cancer activity, about 0 neutral, below 0 antagonists
  Difference: −0.48
[2]; [17]
  Cholesterol-free: 1.483
[2]; [18]
  Complete: 1.005

## CCc1ccc(Cc2ccc3c(c2)[C@]2(OC3)O[C@H](CO)[C@@H](O)[C@H](O)[C@H]2O)cc1 [Tofogliflozin (hydrate)]
[1]; [20]
  Cholesterol-free media + simvastatin (0.04 μM): 0.9605
[1]; [21]
  Complete Media: 1.04
[1]; [22]
  Difference: 0.08
[2]; [19]
  Cholesterol-free: 1.411
[2]; NCI-H292 cells, complete media
  Complete: 1.03
[2]; complete vs cholesterol-free media, greater than 0 enhanced anti-cancer activity, about 0 neutral, below 0 antagonists
  Difference: −0.38

## COc1nc(C)nc(Cl)c1N=C1NCCN1 [Moxonidine]
[1]; [20]
  Cholesterol-free media + simvastatin (0.04 μM): 0.8373
[1]; [21]
  Complete Media: 0.9283
[1]; [22]
  Difference: 0.09
[2]; [12]
  Difference: 0.05
[2]; [7]
  Cholesterol-free: 0.9137
[2]; [8]
  Complete: 0.9657

## O=P(O)(O)C(O)(Cc1cccnc1)P(=O)(O)O [Risedronate (sodium)]
[1]; [20]
  Cholesterol-free media + simvastatin (0.04 μM): 0.8847
[1]; [21]
  Complete Media: 0.9961
[1]; [22]
  Difference: 0.11
[2]; [12]
  Difference: −0.30
[2]; [19]
  Cholesterol-free: 1.022
[2]; NCI-H292 cells, complete media
  Complete: 0.7264
